The values below come from the supplement of paper PMC10307832.

Common to all, as to assay: relative viability (nuclei count vs DMSO), 5 days (fraction); higher = more cells survive
Compound in the test “Crenolanib + Trametinib”: CC1(COc2ccc3c(c2)ncn3-c2ccc3cccc(N4CCC(N)CC4)c3n2)COC1 [Crenolanib] + CC(=O)Nc1cccc(-n2c(=O)n(C3CC3)c(=O)c3c(Nc4ccc(I)cc4F)n(C)c(=O)c(C)c32)c1 [Trametinib] (partner 0.02 µM)
Put shortly: (§1)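 Lung cancer cell lines were seeded in 1536-well plates and dosed by pin tool the next day, with either a single drug or a fixed anchor-drug dose combined with five library-drug doses (not always all listed) spaced in √10 steps. Five days later, one step fixed the cells and stained their nuclei (final 0.05% Triton X-100, 1% formaldehyde, 1 ug/ml Hoechst), and nuclei were counted on 4× images. Relative viability is the nuclei count in treated wells divided by the count in vehicle wells, and each value is the median of duplicate plates.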

Compound in the test “Crenolanib + Alpelisib”: CC1(COc2ccc3c(c2)ncn3-c2ccc3cccc(N4CCC(N)CC4)c3n2)COC1 [Crenolanib] + Cc1nc(NC(=O)N2CCC[C@H]2C(N)=O)sc1-c1ccnc(C(C)(C)C(F)(F)F)c1 [Alpelisib] (partner 2 µM)
Put shortly: as §1

Compound in the test “Crenolanib + Phenformin”: CC1(COc2ccc3c(c2)ncn3-c2ccc3cccc(N4CCC(N)CC4)c3n2)COC1 [Crenolanib] + N=C(N)NC(=N)NCCc1ccccc1 [Phenformin] (partner 250 µM)
The method, boiled down:
as §1

Compound in the test “Tivantinib + Vorinostat”: O=C1NC(=O)[C@@H](c2cn3c4c(cccc24)CCC3)[C@@H]1c1c[nH]c2ccccc12 [Tivantinib] + O=C(CCCCCCC(=O)Nc1ccccc1)NO [Vorinostat] (partner 1 µM)
Put shortly:
as §1

Take NCI-H2087: the relative viability in the test with Crenolanib + Trametinib (first compound 0.01 µM) stood at 0.234; with Crenolanib + Trametinib (first compound 0.03162 µM) it was 0.227; in the test with Crenolanib + Trametinib (first compound 0.1 µM) it was 0.207; with Crenolanib + Trametinib (first compound 0.3162 µM), 0.207; with Crenolanib + Trametinib (first compound 1 µM), 0.193; in the test with Crenolanib + Alpelisib (first compound 0.01 µM) it was 0.86. The relative viability in the test with Crenolanib + Alpelisib (first compound 0.03162 µM) amounted to 1.11; with Crenolanib + Alpelisib (first compound 0.1 µM), 0.942; with Crenolanib + Alpelisib (first compound 0.3162 µM), 1.02; with Crenolanib + Alpelisib (first compound 1 µM), 1.17; in the test with Crenolanib + Phenformin (first compound 0.01 µM), 0.466; with Crenolanib + Phenformin (first compound 0.03162 µM), 0.488. For the same cell line, the relative viability with Crenolanib + Phenformin (first compound 0.1 µM) worked out at 0.434; with Crenolanib + Phenformin (first compound 0.3162 µM) it was 0.524; in the test with Crenolanib + Phenformin (first compound 1 µM), 0.471; with Tivantinib + Vorinostat (first compound 0.01 µM) it was 0.724; with Tivantinib + Vorinostat (first compound 0.03162 µM), 0.672; with Tivantinib + Vorinostat (first compound 0.1 µM), 0.722. Besides, in the test with Tivantinib + Vorinostat (first compound 0.3162 µM), the relative viability was determined as 0.477.

In the case of NCI-H2126, the relative viability in the test with Crenolanib + Trametinib (first compound 0.01 µM) is 0.596; with Crenolanib + Trametinib (first compound 0.03162 µM) it was 0.578; in the test with Crenolanib + Trametinib (first compound 0.1 µM) it was 0.564; in the test with Crenolanib + Trametinib (first compound 0.3162 µM), 0.608; in the test with Crenolanib + Trametinib (first compound 1 µM), 0.62; with Crenolanib + Alpelisib (first compound 0.01 µM) it was 0.8. Further, the relative viability was 0.752 with Crenolanib + Alpelisib (first compound 0.03162 µM); 0.761 with Crenolanib + Alpelisib (first compound 0.1 µM); 0.787 in the test with Crenolanib + Alpelisib (first compound 0.3162 µM); 0.715 in the test with Crenolanib + Alpelisib (first compound 1 µM); 0.533 with Crenolanib + Phenformin (first compound 0.01 µM); 0.536 with Crenolanib + Phenformin (first compound 0.03162 µM). Moreover, the relative viability with Crenolanib + Phenformin (first compound 0.1 µM) turned out to be 0.51; with Crenolanib + Phenformin (first compound 0.3162 µM), 0.51; with Crenolanib + Phenformin (first compound 1 µM) it was 0.455; with Tivantinib + Vorinostat (first compound 0.01 µM), 0.723; in the test with Tivantinib + Vorinostat (first compound 0.03162 µM), 0.482; with Tivantinib + Vorinostat (first compound 0.1 µM) it was 0.772. Further, in the test with Tivantinib + Vorinostat (first compound 0.3162 µM), the relative viability came out at 0.512.

For the cell line NCI-H2170, the relative viability with Crenolanib + Trametinib (first compound 0.01 µM) was found to be 0.945; with Crenolanib + Trametinib (first compound 0.03162 µM) it was 0.93; with Crenolanib + Trametinib (first compound 0.1 µM), 0.928; with Crenolanib + Trametinib (first compound 0.3162 µM), 0.9; with Crenolanib + Trametinib (first compound 1 µM), 0.927; with Crenolanib + Alpelisib (first compound 0.01 µM), 0.856. Moreover, the relative viability worked out at 0.815 in the test with Crenolanib + Alpelisib (first compound 0.03162 µM); 0.814 in the test with Crenolanib + Alpelisib (first compound 0.1 µM); 0.951 with Crenolanib + Alpelisib (first compound 0.3162 µM); 0.912 in the test with Crenolanib + Alpelisib (first compound 1 µM); 0.467 in the test with Crenolanib + Phenformin (first compound 0.01 µM); 0.41 with Crenolanib + Phenformin (first compound 0.03162 µM). Also, the relative viability with Crenolanib + Phenformin (first compound 0.1 µM) was found to be 0.387; in the test with Crenolanib + Phenformin (first compound 0.3162 µM) it was 0.326; with Crenolanib + Phenformin (first compound 1 µM), 0.387; in the test with Tivantinib + Vorinostat (first compound 0.01 µM), 0.852; in the test with Tivantinib + Vorinostat (first compound 0.03162 µM) it was 0.812; with Tivantinib + Vorinostat (first compound 0.1 µM), 0.74.

Take NCI-H2228: the relative viability with Crenolanib + Trametinib (first compound 0.01 µM) turned out to be 0.442; with Crenolanib + Trametinib (first compound 0.03162 µM) it was 0.544; with Crenolanib + Trametinib (first compound 0.1 µM), 0.342; with Crenolanib + Trametinib (first compound 0.3162 µM) it was 0.551; in the test with Crenolanib + Trametinib (first compound 1 µM), 0.5; with Crenolanib + Alpelisib (first compound 0.01 µM), 0.842. Also, the relative viability stood at 0.863 in the test with Crenolanib + Alpelisib (first compound 0.03162 µM); 0.712 with Crenolanib + Alpelisib (first compound 0.1 µM); 0.867 in the test with Crenolanib + Alpelisib (first compound 0.3162 µM); 0.748 with Crenolanib + Alpelisib (first compound 1 µM); 0.313 in the test with Crenolanib + Phenformin (first compound 0.01 µM); 0.487 with Crenolanib + Phenformin (first compound 0.03162 µM). Also, the relative viability in the test with Crenolanib + Phenformin (first compound 0.1 µM) came to 0.324; in the test with Crenolanib + Phenformin (first compound 0.3162 µM), 0.388; with Crenolanib + Phenformin (first compound 1 µM), 0.317; in the test with Tivantinib + Vorinostat (first compound 0.01 µM), 0.639; in the test with Tivantinib + Vorinostat (first compound 0.03162 µM), 0.527; in the test with Tivantinib + Vorinostat (first compound 0.1 µM), 0.651. For the same cell line, the relative viability in the test with Tivantinib + Vorinostat (first compound 0.3162 µM) was 0.733.
